Experiments:
5-HT3 receptor = target: T1, 5-HT3 receptor (Rattus norvegicus, UniProt P35563); test: 5-HT3 antagonistic activity: antagonism of Bezold-Jarisch reflex (reflective bradycardia) induced by 5-HT; type: in vivo, S.D. male rats; conditions: for Duration time of 5-HT3 antagonistic activity: i.v., time until inhibitory rate of reflective bradycardia became 20% or less; for ED50: rat, iv, read-out: ED50 [95% Confidence limits], antagonistic activity against Bezold-Jarisch reflex
T1 construct: S.D. male rats (weighing 200 to 350 g) were anesthetized; from tissue; host or cells: whole anesthetized S.D. male rats (in vivo; endogenous receptor)
T1 sequence (P35563 24-483): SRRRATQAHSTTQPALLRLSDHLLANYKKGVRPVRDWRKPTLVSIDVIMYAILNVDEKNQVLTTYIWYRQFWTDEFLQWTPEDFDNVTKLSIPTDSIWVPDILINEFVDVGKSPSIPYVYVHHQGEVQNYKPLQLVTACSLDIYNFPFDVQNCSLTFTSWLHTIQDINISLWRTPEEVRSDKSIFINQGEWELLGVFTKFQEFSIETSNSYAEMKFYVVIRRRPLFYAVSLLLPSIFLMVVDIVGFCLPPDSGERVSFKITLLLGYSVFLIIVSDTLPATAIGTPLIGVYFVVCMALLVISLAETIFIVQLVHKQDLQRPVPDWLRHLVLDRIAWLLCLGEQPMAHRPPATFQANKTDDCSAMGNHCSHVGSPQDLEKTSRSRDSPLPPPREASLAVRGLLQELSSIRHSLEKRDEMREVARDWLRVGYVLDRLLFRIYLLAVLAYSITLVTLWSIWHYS
Experimental: 5-HT3 antagonistic activity:
The 5-HT3 antagonistic activity was measured in accordance with the method by Collins et al. [Br. J. Pharmacol., 80, 570P (1983)] using as an index the inhibitory activity against reflective bradycardia [Bezold-Jarisch reflex] induced by 5-HT.
That is, S.D. male rats (weighing 200 to 350 g) were anesthetized by intraperitoneal administration of urethane ([…]) and introduced with cannula into the carotid and the pulse frequency was measured. 5-HT was dissolved in physiological saline and intravenously administered (0.04 mg/kg). The test compounds were dissolved in physiological saline or physiological saline containing 5% ethanol and intravenously administered five minutes before the administration of 5-HT.
ED50 values were obtained from a dose-response curve of inhibitory rate of reflective bradycardia by the test compounds and the 5-HT3 antagonistic activity was compared.
In addition, the test compounds (about 25 times amount of the above ED50 value) and 5-HT were intravenously administered in the same manner as mentioned above and thereafter 5-HT (0.04 mg/kg) was intravenously administered with the passage of time.

[1] = system: cisplatin-induced vomiting; test: Preventive and therapeutic effects against vomiting induced by cisplatin; type: in vivo, male ferrets; conditions: i.v.; for Inhibitory rate, preventive effect: 5 minutes before cisplatin (10 mg/kg), vomiting counted for 4 hours; for Inhibitory rate, therapeutic effect: after appearance of vomiting (about 80 minutes after cisplatin 10 mg/kg), counted for 4 hours
Experimental: Preventive and therapeutic effects against vomiting induced by cisplatin:
The experiment was conducted in accordance with the method by Costall et al. [Neuropharmacology, 26, 1321-1326 (1987)].
That is, male ferrets (weighing 1.0 to 1.6 kg, three animals in each group) underwent an implant operation of cannula at the jugular vein for intravenous administration. For evaluating the preventive effects, the test compounds dissolved in a physiological saline or in a physiological saline containing 5% ethanol or a physiological saline (control) were intravenously administered to the ferrets three days after the operation, then after 5 minutes, cisplatin (10 mg/kg) dissolved in a physiological saline was intravenously administered to the ferrets over 30 seconds, and a number of vomiting caused between just after the administration of cisplatin and 4 hours after the administration was measured. As to the therapeutic effects, cisplatin (10 mg/kg) dissolved in a physiological saline was intravenously administered to the ferrets three days after the operation over 30 seconds. After appearance of vomiting (about 80 minutes after the administration of cisplatin), the test compounds dissolved in a physiological saline or in a physiological saline containing 5% ethanol or a physiological saline (control) were intravenously administered to the ferrets and then a number of vomiting occurred during 4 hours thereafter was counted. The inhibitory rate was calculated by the following formula: Inhibitory rate (%)={1-(mean number of vomiting in the group administered with the test compound/mean number of vomiting in the control group)}×100

ddY Male mice = test: Acute toxicity; type: in vivo; conditions: 100 mg/kg intravenously; observed for 7 days; five mice per group
Source text: The same as in Experiment 2

[2] = system: vomiting caused by the administration of the chemotherapeutics such as cisplatin; conditions: Cancer. Chemother. Pharmacol., 23, 389-391 (1989); cited from earlier work

Compound | Duration time of 5-HT3 antagonistic activity (5-HT3 receptor; dose 1.0 μg/kg) | Inhibitory rate, preventive effect ([1]; 0.01 mg/kg) | Inhibitory rate, therapeutic effect ([1]; 0.01 mg/kg) | 5-HT3 antagonistic activity compared to the compound of the present invention (5-HT3 receptor; in words, reason why duration was not measured) | ED50 (5-HT3 receptor) | Duration time of 5-HT3 antagonistic activity (5-HT3 receptor; dose 100 μg/kg) | Inhibitory rate, preventive effect ([1]; 0.1 mg/kg) | Inhibitory rate, therapeutic effect ([1]; 0.1 mg/kg) | Death of animals (ddY Male mice) | Inhibition of vomiting caused by chemotherapeutics such as cisplatin [2]
CC(C)n1c(N2CCN(C)CC2)nc2cc(Cl)c(N)cc21 [Compound 1, 6-Amino-5-chloro-1-isopropyl-2-(4-methyl-1-piperazinyl)benzimidazole] | > 8 h | 100% | 100% |  |  |  |  |  |  | 
CC(C)n1c(N2CCN(C)CC2)nc2cc(Cl)c(N)cc21.O=C(O)/C=C\C(=O)O.O=C(O)/C=C\C(=O)O [Compound 2, 6-Amino-5-chloro-1-isopropyl-2-(4-methyl-1-piperazinyl)benzimidazole dimaleate] | > 8 h | 85% | 100% |  |  |  |  |  |  | 
CN1CCN(c2nc3ccccc3n2C)CC1 [Compound A, 1-Methyl-2-(4-methyl-1-piperazinyl)benzimidazole] |  |  |  | quite low as compared to the compound of the present invention | > 3 µg/kg |  |  |  |  | 
Cc1nccn1CC1CCc2c(c3ccccc3n2C)C1=O (centres unmarked) [Reference compound, Ondansetron] |  |  |  |  | 4 µg/kg | 2 h | 31% | 77% | all animals were dead | effective
